From ChEMBL document CHEMBL1681734, “hNK2 receptor antagonists. The use of intramolecular hydrogen bonding to increase solubility and membrane permeability” (Bioorg Med Chem Lett, 2011) come the findings set out here.

The structures appear in SMILES notation. Converted amounts (≈) assume the structure as drawn.

Tested on in the first data set: not listed separately
As to the kind of experiment: Aqueous solubility of the compound at pH 6.4. The format is physicochemical.
Settings: not given
Turning to `O=C(NC1(C(=O)N[C@@H](Cc2ccccc2)C(=O)NCC2CCN(CC3CCOCC3)CC2)CCCC1)c1ccc(-n2cccc2)cc1Cl`, the solubility was over 2820 µg/mL.
In the case of `O=C(NC1(C(=O)N[C@H](CCCN2CCN(CC3CCOCC3)CC2)Cc2ccccc2)CCCC1)c1ccc2ccccc2c1`, the concentration in solution (solubility) was 1570 µg/mL (≈ 2.57 mM).
On the same count and under the same terms, next, `O=C(NC1(C(=O)N[C@H](CCCN2CCN(CC3CCOCC3)CC2)Cc2ccccc2)CCCC1)c1cc2ccccc2cn1`: 2800 µg/mL (≈ 4.58 mM); `COc1c(C(=O)NC2(C(=O)N[C@H](CCCN3CCN(CC4CCOCC4)CC3)Cc3ccccc3)CCCC2)ccc2ccccc12`: 1910 µg/mL (≈ 2.98 mM); `O=C(NC1(C(=O)N[C@@H](Cc2ccccc2)C(=O)NCC2CCN(CC3CCOCC3)CC2)CCCC1)c1ccc(-n2cccc2)cc1F`: over 2860 µg/mL.
On the same count and under the same terms, then `COc1cc2ccccc2cc1C(=O)NC1(C(=O)N[C@H](CCCN2CCN(CC3CCOCC3)CC2)Cc2ccccc2)CCCC1`, with 3070 µg/mL (≈ 4.79 mM); and `CCCCc1ccc(C(=O)NC2(C(=O)N[C@@H](Cc3ccccc3)C(=O)NCC3CCN(CC4CCOCC4)CC3)CCCC2)cc1`, with over 2410 µg/mL; and `O=C(NC1(C(=O)N[C@@H](Cc2ccccc2)C(=O)NCC2CCN(CC3CCOCC3)CC2)CCCC1)c1ccc(-n2cccc2)cc1`, with 1450 µg/mL (≈ 2.27 mM).
Still for that read-out and setting: next, `CCCCc1ccc(C(=O)NC2(C(=O)N[C@@H](Cc3ccccc3)C(=O)NCC3CCN(CC4CCOCC4)CC3)CCCC2)nc1`: over 6600 µg/mL.

Tested on in another data set: not listed separately
Put plainly: Membrane permeability by PAMPA assay. The format is ADME. The settings on record: read-out: permeability. (In general: The PAMPA barrier holds no transporters, so it reflects passive diffusion.)
On to `O=C(NC1(C(=O)N[C@@H](Cc2ccccc2)C(=O)NCC2CCN(CC3CCOCC3)CC2)CCCC1)c1ccc(-n2cccc2)cc1Cl`, for which the Papp came to 0.16 ×10⁻⁶ cm/s.
With `O=C(NC1(C(=O)N[C@H](CCCN2CCN(CC3CCOCC3)CC2)Cc2ccccc2)CCCC1)c1ccc2ccccc2c1`, the Papp turned out to be 5.96 ×10⁻⁶ cm/s.
As to `O=C(NC1(C(=O)N[C@H](CCCN2CCN(CC3CCOCC3)CC2)Cc2ccccc2)CCCC1)c1cc2ccccc2cn1`, the Papp came to 15.5 ×10⁻⁶ cm/s.
Same read-out and setting: next, `COc1c(C(=O)NC2(C(=O)N[C@H](CCCN3CCN(CC4CCOCC4)CC3)Cc3ccccc3)CCCC2)ccc2ccccc12`: 6.77 ×10⁻⁶ cm/s.
Still for that read-out and setting: then `O=C(NC1(C(=O)N[C@@H](Cc2ccccc2)C(=O)NCC2CCN(CC3CCOCC3)CC2)CCCC1)c1ccc(-n2cccc2)cc1F`, with 0.66 ×10⁻⁶ cm/s; and `COc1cc2ccccc2cc1C(=O)NC1(C(=O)N[C@H](CCCN2CCN(CC3CCOCC3)CC2)Cc2ccccc2)CCCC1`, with 11.9 ×10⁻⁶ cm/s.

Tested on in a further data set: not listed separately
As to the kind of experiment: Permeability across apical to basolateral side in human Caco2 cells at 100 uM. The note with it: Caco-2, read-out: permeability. The format is ADME, cell-based. (Caco-2 monolayers are a common model of the intestinal barrier.)
As for `O=C(NC1(C(=O)N[C@@H](Cc2ccccc2)C(=O)NCC2CCN(CC3CCOCC3)CC2)CCCC1)c1ccc(-n2cccc2)cc1Cl`, the Papp A→B at 100 µM was 4.21 ×10⁻⁶ cm/s.
Still for that read-out and setting: next, `O=C(NC1(C(=O)N[C@H](CCCN2CCN(CC3CCOCC3)CC2)Cc2ccccc2)CCCC1)c1ccc2ccccc2c1`: 14.7 ×10⁻⁶ cm/s.
In the case of `O=C(NC1(C(=O)N[C@H](CCCN2CCN(CC3CCOCC3)CC2)Cc2ccccc2)CCCC1)c1cc2ccccc2cn1`, the Papp A→B at 100 µM was 25.2 ×10⁻⁶ cm/s.
On the same count and under the same terms, then `COc1c(C(=O)NC2(C(=O)N[C@H](CCCN3CCN(CC4CCOCC4)CC3)Cc3ccccc3)CCCC2)ccc2ccccc12`, with 11.7 ×10⁻⁶ cm/s; and `O=C(NC1(C(=O)N[C@@H](Cc2ccccc2)C(=O)NCC2CCN(CC3CCOCC3)CC2)CCCC1)c1ccc(-n2cccc2)cc1F`, with 13.8 ×10⁻⁶ cm/s.
On the same count and under the same terms, next, `COc1cc2ccccc2cc1C(=O)NC1(C(=O)N[C@H](CCCN2CCN(CC3CCOCC3)CC2)Cc2ccccc2)CCCC1`: 13.6 ×10⁻⁶ cm/s.
The same measure, in the same setting: then `O=C(NC1(C(=O)N[C@@H](Cc2ccccc2)C(=O)NCC2CCN(CC3CCOCC3)CC2)CCCC1)c1ccc(-n2cccc2)cc1`, with under 1 ×10⁻⁶ cm/s.

Another data set concerns the target T1, Substance-K receptor (Homo sapiens, UniProt P21452).
T1 sequence (P21452 whole entry): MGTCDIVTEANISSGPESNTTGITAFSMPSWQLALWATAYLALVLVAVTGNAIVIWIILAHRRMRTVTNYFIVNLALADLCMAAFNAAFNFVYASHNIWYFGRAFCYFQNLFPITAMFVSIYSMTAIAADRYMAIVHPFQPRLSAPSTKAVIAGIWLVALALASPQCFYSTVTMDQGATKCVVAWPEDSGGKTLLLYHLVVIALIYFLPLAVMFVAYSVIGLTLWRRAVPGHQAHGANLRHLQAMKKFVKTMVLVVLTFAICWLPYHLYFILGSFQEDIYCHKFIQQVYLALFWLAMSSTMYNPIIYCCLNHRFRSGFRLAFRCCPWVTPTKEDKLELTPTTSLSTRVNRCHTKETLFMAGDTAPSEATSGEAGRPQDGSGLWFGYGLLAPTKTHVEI
As to the kind of experiment: Displacement of [125I]neurokinin A from human NK2 receptor after 30 mins.
Settings: not given
In general terms: Loss of bound radioactivity is the signal in a displacement assay; it reports binding, not function.
The molecule `O=C(NC1(C(=O)N[C@@H](Cc2ccccc2)C(=O)NCC2CCN(CC3CCOCC3)CC2)CCCC1)c1ccc(-n2cccc2)cc1Cl` gave an inhibition constant Ki of 3.98 nM.
For the molecule `O=C(NC1(C(=O)N[C@H](CCCN2CCN(CC3CCOCC3)CC2)Cc2ccccc2)CCCC1)c1ccc2ccccc2c1`, the affinity corresponds to a Ki of 0.324 nM.
For `O=C(NC1(C(=O)N[C@H](CCCN2CCN(CC3CCOCC3)CC2)Cc2ccccc2)CCCC1)c1cc2ccccc2cn1`, the affinity, expressed as Ki, was 2.04 nM.
Regarding `COc1c(C(=O)NC2(C(=O)N[C@H](CCCN3CCN(CC4CCOCC4)CC3)Cc3ccccc3)CCCC2)ccc2ccccc12`, the Ki was 44.7 nM.
Same read-out and setting: then `O=C(NC1(C(=O)N[C@@H](Cc2ccccc2)C(=O)NCC2CCN(CC3CCOCC3)CC2)CCCC1)c1ccc(-n2cccc2)cc1F`, with 3.24 nM.
The same measure, in the same setting: next, `COc1cc2ccccc2cc1C(=O)NC1(C(=O)N[C@H](CCCN2CCN(CC3CCOCC3)CC2)Cc2ccccc2)CCCC1`: 8.32 nM; `O=C(NC1(C(=O)N[C@@H](Cc2ccccc2)C(=O)NCC2CCN(CC3CCOCC3)CC2)CCCC1)c1ccc(-n2cccc2)cc1`: 0.234 nM.

One may read the solubility as how much of the substance goes into solution per volume. For orientation: Ki means a measure of affinity in units of concentration, obtained from inhibition or displacement. The low end stands for tighter binding, the high end for weaker binding.
